Assays:
NCI-H295R = assay: RNA-seq transcriptome of NCI-H295R after drug treatment; type: cell-based; details: for differentially expressed genes overlapping between EZH2i and CBPi: 96-hour IC-50 administration
Experimental: FIG. 6. Forskolin induces faithful zF differentiation and steroidogenesis in NCI-H295R. […] The induction of immediate early response programs is consistent with known mechanisms of action of PKA.
(§1) FIG. 21. EZH2i and CBPi redundantly disrupt the NCI-H295R transcriptome. […] Right, gene expression changes induced by EZH2i and CBPi are strongly correlated. […] C.
To evaluate if EZH2i disrupted zF differentiation, the NCI-H295R was treated with the zF differentiation agent forskolin and the transcriptome was profiled by RNA-seq. Despite that CIMP-high as a class is at the zF differentiation maximum across human ACC (FIG. 5), the presence of mutant CTNNB1 in this cell line and high levels of nuclear β-catenin are likely to enable faithful responsiveness to forskolin and refractory response to Wnt/β-catenin stimulants, analogously to the Y1 cell line.
The NCI-H295R response to CBPi was evaluated by RNA-seq and compared to the NCI-H295R response to EZH2i. […] Similarly to EZH2i, CBPi induces downregulation of all core modules that define CIMP-high ACC (FIG. 22). Taken together, the results point to adrenocortical differentiation as a targetable therapeutic vulnerability selected for in CIMP-high ACC.

NCI-H295R, ATC7L, and Y1 = assay: Viability of ACC cell lines with CBPi alone or combined with EZH2i; type: cell-based; details: increasing doses of CBPi combined with EZH2i at the IC-50 dose for each cell line; all ACC cell lines
Experimental: FIG. 20. EZH2i and CBPi are synergistic in ACC cell lines. NCI-H295R, ATC7L, and Y1 were treated with increasing doses of CBPi (PRI-724), alone or in combination with EZH2i at the IC-50 dose for each cell line (EZH2i viability curves for ATC7L and Y1 not shown).
ACC cell lines were treated with a specific and irreversible inhibitor of the H3K27 acetyltransferase CBP (PRI-724 (Kahn, 2014)). CBP regulates H3K27ac deposition genome-wide including at enhancers, and CBP-dependent H3K27ac deposition is required for enhancer activity (Merika et al., 1998; Raisner et al., 2018). Cell lines received the CBP inhibitor (CBPi) either alone or combination with EZH2i at the determined IC-50 dose for that cell line.

HSD3B2 = HSD3B2 expression by qPCR in NCI-H295R; type: cell-based; details: doses under the IC-50
Source text: FIG. 7. EZH2i reverses zF differentiation. […] Representative experiment shown, n>3. C.
as §1

[1] = system: subcutaneous, immunodeficient xenograft model of adrenal cancer; assay: Subcutaneous xenograft model of adrenal cancer; type: in vivo, mouse; details: 200 mg/kg PO daily, compared to vehicle
Experimental: To test if disruption of SF1/β-catenin complexes in vivo can cause dedifferentiation (Example 1 and 2) and disrupt tumor growth, the impact of EZH2 inhibition on a xenograft model derived from the Borges et al. Oncogene 2020 genetically engineered mouse model detailed in FIG. 25 was assayed.

Row | SMILES | steroidogenesis (RNA-seq) (NCI-H295R) | differentially expressed genes overlapping between EZH2i and CBPi (NCI-H295R) | loss of viability in combination (NCI-H295R, ATC7L, and Y1) | HSD3B2 expression (HSD3B2) | tumor growth [1] | expression of SF1 ([1]; immunohistochemistry)
1 | C[C@H]1[C@H]2N(C(=O)CN(C)N2C(=O)NCc2ccccc2)[C@@H](Cc2ccc(OP(=O)(O)O)cc2)C(=O)N1Cc1cccc2cccnc12 [PRI-724] | potent downregulation of steroidogenesis | ~70% | synergistic | dose-dependent downregulation |  | 
2 | CCN(c1cc(-c2ccc(CN3CCOCC3)cc2)cc(C(=O)NCc2c(C)cc(C)[nH]c2=O)c1C)C1CCOCC1 [EPZ-6438] |  | ~70% |  |  | decreases tumor growth | decreasing expression of SF1
